Laboratory results reported in patent publication US10822311B2, “Pyrimidines and variants thereof, and uses therefor” (Afferent Pharmaceuticals Inc., priority 2016, dated 2020).
Like-named read-outs stand apart in the source and are kept apart here.

Columns and labels:
[1] = target: T1, human P2X2/3 (heteromeric P2X2/3 channels) (Homo sapiens, UniProt P56373+Q9UBL9); test: FlexStation calcium fluorescence assay, heteromeric P2X2/3 channels in 1321N1 cells; type: cell-based; settings: highest concentration tested is 10 μM
T1 construct: expressed in transfected cells; host or cells: 1321N1 human astrocytoma cells (1321N1-hP2X2/3)
T1 sequence (P56373 1-397): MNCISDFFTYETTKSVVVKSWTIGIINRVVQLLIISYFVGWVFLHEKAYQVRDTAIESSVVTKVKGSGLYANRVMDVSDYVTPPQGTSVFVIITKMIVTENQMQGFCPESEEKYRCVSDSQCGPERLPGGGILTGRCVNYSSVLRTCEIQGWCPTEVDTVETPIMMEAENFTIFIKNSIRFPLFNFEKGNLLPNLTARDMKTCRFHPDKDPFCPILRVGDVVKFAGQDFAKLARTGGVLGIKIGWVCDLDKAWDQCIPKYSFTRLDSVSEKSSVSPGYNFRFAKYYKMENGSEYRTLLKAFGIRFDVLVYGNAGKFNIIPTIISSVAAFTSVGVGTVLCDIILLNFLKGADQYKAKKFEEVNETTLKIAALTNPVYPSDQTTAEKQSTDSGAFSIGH
T1 sequence (Q9UBL9 1-471): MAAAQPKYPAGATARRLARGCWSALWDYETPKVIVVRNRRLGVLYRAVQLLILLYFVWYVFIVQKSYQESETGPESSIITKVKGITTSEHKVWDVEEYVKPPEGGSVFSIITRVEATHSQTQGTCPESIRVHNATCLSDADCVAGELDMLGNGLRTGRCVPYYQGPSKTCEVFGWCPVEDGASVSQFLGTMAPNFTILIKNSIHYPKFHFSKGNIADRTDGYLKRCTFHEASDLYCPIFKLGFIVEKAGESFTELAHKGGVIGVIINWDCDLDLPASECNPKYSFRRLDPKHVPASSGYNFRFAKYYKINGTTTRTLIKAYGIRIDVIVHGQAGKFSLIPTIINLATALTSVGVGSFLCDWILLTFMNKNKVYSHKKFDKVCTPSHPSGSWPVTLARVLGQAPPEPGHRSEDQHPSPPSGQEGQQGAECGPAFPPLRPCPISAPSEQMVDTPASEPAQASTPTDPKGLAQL
Experimental: (§1) 1321N1 human astrocytoma and HEK293 human embryonic kidney cells were stably transfected with human P2X2 and P2X3 receptor subunits to form heteromeric P2X2/3 channels and passaged in flasks. Additionally, HEK293 cells were stably transfected with human P2X3 receptor subunits to form homomeric P2X3 channels.
(§2) Approximately 24 hours before the FlexStation calcium fluorescence experiment, cells were released from their flasks, centrifuged and re-suspended in nutrient medium. The cells were aliquoted into black-wall, clear-bottom 96 well plates at a density of 25,000 cells per well and incubated overnight in a humidified, CO2-enriched (5%) atmosphere at 37° C.
(§3) On the day of the experiment, cells were washed with assay buffer (calcium- and magnesium-free Hank's balanced salt solution, 20 mM HEPES, 2 mM CaCl2; AB) and loaded with 4 μM Fluo-4 (P2X2/3) or Calcium 6 (Molecular Devices, according to manufacturer's instructions; P2X3) calcium-sensitive fluorescent dye in 100 μL AB.
(§4) After 1 hour of dye loading at 37° C., 1321N1-hP2X2/3 cells were washed two times with AB and test compound or vehicle added to each well in a total volume of 150 μL AB. HEK-hP2X3 cells were not washed because the Calcium 6 dye kit includes an extracellular dye that quenches unabsorbed Calcium 6 dye; test compound or vehicle were added directly to the assay plates to achieve the appropriate concentration of test compound in a total volume of 150 μL AB.
(§5) After 20 minutes incubation at room temperature and protected from light, the assay plates were loaded into the FlexStation microplate reader and baseline fluorescence measured with an excitation wavelength of 485 nm and emission wavelength readings centered at 525 nm (515 nm cut off).
(§6) The agonist was dispensed by the FlexStation during fluorescence measurement to construct agonist activation and antagonist inhibition curves. The final agonist concentration for inhibition was 1 μM α,β-meATP for P2X3 and 3 μM ATP for P2X2/3. Peak fluorescence was measured and curves generated using a four parameter nonlinear regression equation.

[2] = target: T2, human P2X3 receptor (homomeric P2X3 channels) (Homo sapiens, UniProt P56373); test: FlexStation calcium fluorescence assay, homomeric P2X3 channels in HEK293 cells; type: cell-based
T2 construct: expressed in transfected cells; host or cells: HEK293 human embryonic kidney cells (HEK-hP2X3)
T2 sequence (P56373 1-397): T1 sequence (P56373 1-397)
Experimental: as §1, §2, §3, §4, §5, §6

[3] = 1321N1 cells, hP2X2/3, agonist 3 μM ATP, read-out: Average pIC50 P2X2/3 (converted)
[4] = Table 3A, sulfur-linked, hP2X2/3, 1321N1 (astrocytoma) cells
[5] = HEK293 cells, hP2X3, agonist 1 μM α,β-meATP, read-out: Average pIC50 P2X3 (converted)
[6] = Table 3A, sulfur-linked, hP2X3, HEK293 cells

Compound	IC50 [1, 3] [nM]	IC50 [2, 5] [nM]	other results
COc1cc(Sc2cnc(N)nc2N)c(C(C)C)cc1OC [Compound 1]			Average pIC50 P2X2/3 ([1]; 1321N1 cells, hP2X2/3, agonist 3 μM ATP): <5; P2X2/3 mean pIC50, X = S ([1]; Table 3A, sulfur-linked, hP2X2/3, 1321N1 (astrocytoma) cells, listed as Row A, X = S): <5; IC50 ([1]; Table 3A, sulfur-linked, hP2X2/3, 1321N1 (astrocytoma) cells, read-out: P2X2/3 mean pIC50, X = S (converted)): > 10000 nM; Average pIC50 P2X3 ([2]; HEK293 cells, hP2X3, agonist 1 μM α,β-meATP): 7.0; P2X3 mean pIC50, X = S ([2]; Table 3A, sulfur-linked, hP2X3, HEK293 cells, listed as Row A, X = S): 7.0; IC50 ([2]; Table 3A, sulfur-linked, hP2X3, HEK293 cells, read-out: P2X3 mean pIC50, X = S (converted)): 100 nM
COc1cc(C(C)C)c(Sc2cnc(N)nc2N)cc1S(C)(=O)=O [Compound 2]	> 10000	501	P2X2/3 mean pIC50, X = S [1, 4]: <5; P2X3 mean pIC50, X = S [2, 6]: 6.3
COc1cc(C(C)C)c(Sc2cnc(N)nc2N)cc1S(N)(=O)=O [Compound 3]	> 10000	158	
COc1cc(C(C)C)c(Sc2cnc(N)nc2N)cc1I [Compound 4]	6310	126	P2X2/3 mean pIC50, X = S [1, 4]: 5.2; Selectivity, X = S ([2]; Table 3A, sulfur-linked, P2X3 vs P2X2/3 potency ratio): 48
C#Cc1cc(Sc2cnc(N)nc2N)c(C(C)C)cc1OC [Compound 5]	3980	39.8	
CC#Cc1cc(Sc2cnc(N)nc2N)c(C(C)C)cc1OC [Compound 6]	> 10000	794	
COc1cc(C(C)C)c(Sc2cnc(N)nc2N)cc1C [Compound 7]	> 10000	316	
COc1cc(C(C)C)c(Sc2cnc(N)nc2N)cc1Br [Compound 8]	> 10000	200	
COc1cc(C(C)C)c(Sc2cnc(N)nc2N)cc1Cl [Compound 9]	> 10000	158	P2X2/3 mean pIC50, X = S [1, 4]: <5; P2X3 mean pIC50, X = S [2, 6]: 6.8
COc1cc(C(C)C)c(Sc2cnc(N)nc2N)cc1C#N [Compound 10]	> 10000	> 10000	
COc1cc(C(C)C)c(Sc2cnc(N)nc2N)cc1-c1nnn[nH]1 [Compound 11]	> 10000	158	
COc1cc(C(C)C)c(Sc2cnc(N)nc2N)cc1C(=O)O [Compound 12]	> 10000	5010	

Continued, in another order:

IC50 [1, 3] [nM]	IC50 [2, 5] [nM]	Compound	other results
200	39.8	COc1cc(Oc2cnc(N)nc2N)c(C(C)C)nc1OC [Compound 13]	
> 10000	1260	COc1ccc(Oc2cnc(N)nc2N)c(C(C)C)n1 [Compound 14]	
398	63.1	COc1nc(C(C)C)c(Oc2cnc(N)nc2N)cc1I [Compound 15]	Selectivity P2X3/P2X2/3 ([2]; Ratio=10^(P2X3pIC50−P2X2/3pIC50)): 6.5
> 10000	63.1	COc1nc(C(C)C)c(Oc2cnc(N)nc2N)cc1S(C)(=O)=O [Compound 16]	
> 10000	1000	COc1nc(C(C)C)c(Oc2cnc(N)nc2N)cc1C#N [Compound 17]	
1580	63.1	COc1nc(C(C)C)c(Oc2cnc(N)nc2N)cc1C(F)(F)F [Compound 18]	
200	6.31	C#Cc1cc(Oc2cnc(N)nc2N)c(C(C)C)nc1OC [Compound 19]	
